Test results as given in patent US9458141B2, “Low molecular weight thyroid stimulating hormone receptor (TSHR) agonists” (The United States of America, as represented by the …, priority 2008, dated 2016).
Like-named read-outs stand apart in the source and are kept apart here.

Target: T1, human TSHR (Homo sapiens, UniProt P16473)
T1 construct: expressed in transfected cells
Assay: Homogeneous Time Resolved Fluorescence (HTRF) cAMP assay, TSHR cell line
Format: cell-based
Details: for AC50: HTRF cAMP, TSHR cell line, 30 minute incubation; for Emax: read-out: Maximum Activity compared to TSH, 100% activity = response of 30 mU/ml TSH, 0% = DMSO control; for Maximum Activity compared to TSH: 100% activity = response of 30 mU/ml TSH, 0% = DMSO control, in %; call rule not given here

T1 sequence (P16473 21-764): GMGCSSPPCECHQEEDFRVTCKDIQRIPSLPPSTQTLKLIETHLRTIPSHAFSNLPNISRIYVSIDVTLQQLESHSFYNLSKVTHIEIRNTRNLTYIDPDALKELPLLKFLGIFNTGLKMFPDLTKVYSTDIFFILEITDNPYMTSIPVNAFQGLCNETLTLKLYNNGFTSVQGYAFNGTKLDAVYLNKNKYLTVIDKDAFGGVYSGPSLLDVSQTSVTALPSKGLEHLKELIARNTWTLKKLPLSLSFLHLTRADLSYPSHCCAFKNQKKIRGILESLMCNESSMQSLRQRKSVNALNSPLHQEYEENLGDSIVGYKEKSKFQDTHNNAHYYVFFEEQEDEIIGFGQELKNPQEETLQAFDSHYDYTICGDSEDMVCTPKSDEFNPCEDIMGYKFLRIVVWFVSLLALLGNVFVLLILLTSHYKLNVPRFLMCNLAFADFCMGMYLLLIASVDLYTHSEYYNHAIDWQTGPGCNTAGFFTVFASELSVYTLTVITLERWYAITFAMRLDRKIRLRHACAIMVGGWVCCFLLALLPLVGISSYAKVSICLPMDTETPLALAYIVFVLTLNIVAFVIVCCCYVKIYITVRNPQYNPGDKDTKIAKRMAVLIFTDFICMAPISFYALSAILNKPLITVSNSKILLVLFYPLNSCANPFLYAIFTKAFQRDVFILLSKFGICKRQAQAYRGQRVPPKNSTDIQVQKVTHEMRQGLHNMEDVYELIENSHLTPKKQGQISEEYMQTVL

| AC50 | Structure (SMILES) | other results |
| --- | --- | --- |
| inactive | COc1ccc(-c2nc3ccccc3n2Cc2ccccc2)cc1COc1ccc(NC(C)=O)cc1 [Structure 179] | – |
| inactive | COc1ccc(C2Nc3ccccc3C(=O)N2CCCN(C)C)cc1COc1ccc(NC(C)=O)cc1 (stereo not shown) [Structure 186] | – |
| inactive | COc1ccc(C2Nc3ccc(Cl)cc3C(=O)N2Cc2ccccc2)cc1COc1ccc(C(N)=O)cc1 (stereo not shown) [Structure 187] | – |
| inactive | CC(=O)Nc1cccc(OCc2cccc(C3Nc4ccccc4C(=O)N3Cc3ccco3)c2)c1 (stereo not shown) [Structure 193] | – |
| inactive | COc1ccc(-c2nc3ccccc3c(=O)n2Cc2ccccc2)cc1OCc1ccc(NC(C)=O)cc1 [Structure 195] | – |
| inactive | COc1ccc(C2Nc3ccccc3C(=O)N2Cc2ccccc2)cc1COc1ccc(C)cc1 (stereo not shown) [Structure 196] | – |
| inactive | COc1ccc(C2Nc3ccccc3C(=O)N2Cc2ccccc2C)cc1COc1ccc(NC(C)=O)cc1 (stereo not shown) [Structure 201] | – |
| inactive | COc1ccc(C2Nc3ccccc3C(=O)N2Cc2ccco2)cc1COc1ccccc1 (stereo not shown) [Structure 207] | – |
| inactive | COc1ccc(C2Nc3ccccc3C(=O)N2Cc2ccccc2)cc1COc1cccc(C(F)(F)F)c1 (stereo not shown) [Structure 208] | – |
| inactive | COc1ccc(C2Nc3ccccc3C(=O)N2CCO)cc1COc1ccc(NC(C)=O)cc1 (stereo not shown) [Structure 209] | – |
| inactive | COc1ccc(C2Nc3ccccc3C(=O)N2Cc2ccc(C(C)(C)C)cc2)cc1COc1ccc(NC(C)=O)cc1 (stereo not shown) [Structure 214] | – |
| inactive | COc1ccc(O)c(C2Nc3ccccc3C(=O)N2Cc2ccccc2)c1 (stereo not shown) [Structure 216] | – |
| inactive | COc1ccc(C2Nc3ccccc3C(=O)N2CCO)cc1COc1ccc(NC(C)=O)cc1 (stereo not shown) [Structure 221] | – |
| inactive | COc1ccc(CN(Cc2ccccc2)[S+](=O)([O-])c2ccccc2)cc1COc1ccc(NC(C)=O)cc1 [Structure 223] | – |
| inactive | COc1ccc(C2Nc3ccccc3C(=O)N2CCc2ccc(Cl)cc2Cl)cc1COc1ccc(NC(C)=O)cc1 (stereo not shown) [Structure 224] | – |
| inactive | COc1ccc(C2Nc3ccccc3C(=O)N2CCc2ccc(Cl)cc2Cl)cc1COc1ccc(NC(C)=O)cc1 (stereo not shown) [Structure 225] | – |
| inactive | COc1ccc(C2Nc3ccccc3C(=O)N2Cc2ccccc2)cc1OCc1ccc(NC(C)=O)cc1 (stereo not shown) [Structure 228] | – |
| inactive | COc1cc(C2Nc3ccccc3C(=O)N2Cc2ccccc2)ccc1OCc1ccc(NC(C)=O)cc1 (stereo not shown) [Structure 230] | – |
| inactive | COc1ccc(C2Nc3ccccc3C(=O)N2Cc2ccccc2)cc1COc1ccc(C)cc1 (stereo not shown) [Structure 232] | – |
| inactive | COc1ccc(C2Nc3cccc(OC)c3C(=O)N2Cc2ccccc2)cc1COc1ccc(NC(C)=O)cc1 (stereo not shown) [Structure 235] | – |
| inactive | COc1ccc(C2Nc3ccccc3C(=O)N2Cc2ccccc2)cc1COc1ccc(Cl)cc1 (stereo not shown) [Structure 238] | – |
| inactive | COc1ccc(C2Nc3ccccc3C(=O)N2Cc2ccc(-c3ccccc3)cc2)cc1COc1ccc(NC(C)=O)cc1 (stereo not shown) [Structure 242] | – |
| inactive | COc1ccc(C2Nc3ccccc3C(=O)N2Cc2ccccc2)cc1Oc1ccc(NC(C)=O)cc1 (stereo not shown) [Structure 243] | – |
| inactive | COc1ccc(CN2C(=O)N(c3ccccc3)C(=O)C2c2ccccc2)cc1COc1ccc(NC(C)=O)cc1 (stereo not shown) [Structure 247] | – |
| inactive | COc1ccc(C2Nc3ccccc3C(=O)N2Cc2ccccc2)cc1COc1ccc(C#N)cc1 (stereo not shown) [Structure 250] | – |
| inactive | COc1cc(C2Nc3ccccc3C(=O)N2Cc2ccccc2)ccc1OCc1ccc(NC(C)=O)cc1 (stereo not shown) [Structure 252] | – |
| inactive | COc1ccc(C2Nc3ccccc3C(=O)N2Cc2ccccc2)cc1COc1cccc(Cl)c1 (stereo not shown) [Structure 259] | – |
| inactive | COc1ccc(O)c(C2Nc3ccccc3C(=O)N2Cc2ccccc2)c1 (stereo not shown) [Structure 260] | – |

The remaining lines, values behind:

| Structure (SMILES) | AC50 | other results |
| --- | --- | --- |
| O=C1c2ccccc2NC(c2ccccc2O)N1Cc1ccccc1 (stereo not shown) [Structure 180] | inactive | – |
| COc1ccc(-c2nc3ccc(Cl)cc3c(=O)n2Cc2ccccc2)cc1COc1ccc(NC(C)=O)cc1 [Structure 181] | – | AC50 (read-out: AC50): 3.98 µM; Emax: 22.5% |
| COc1ccc(C2Nc3ccccc3C(=O)N2Cc2ccco2)cc1COc1c(C)cccc1C (stereo not shown) [Structure 182] | inactive | – |
| O=C1CC(c2ccco2)CC2=C1C(c1ccncc1)n1nc(C(F)(F)F)nc1N2 (stereo not shown) [Structure 183] | inactive | – |
| COc1ccc(C=O)cc1COc1ccc(NC(C)=O)cc1 [Structure 184] | inactive | – |
| COc1ccc(C2Nc3ccccc3C(=O)N2Cc2ccco2)cc1COc1ccc([N+](=O)[O-])cc1 (stereo not shown) [Structure 188] | inactive | – |
| COc1ccc(CN(Cc2ccccc2)C(=O)c2ccccc2O)cc1 [Structure 189] | – | Maximum Activity compared to TSH: 24.00; AC50 (read-out: AC50): 22.4 µM |
| COc1ccc(-c2nc3ccc(NC(C)=O)cc3c(=O)n2Cc2ccccc2)cc1COc1ccc(NC(C)=O)cc1 [Structure 191] | inactive | – |
| O=c1c2ccccc2nc(-c2ccccc2O)n1Cc1ccccc1 [Structure 192] | inactive | – |
| O=C(c1ccccc1O)N(Cc1ccccc1)Cc1ccccc1 [Structure 194] | – | Maximum Activity compared to TSH: 27.50; AC50 (read-out: AC50): 31.6 µM |
| COc1ccc(C2Nc3ccccc3C(=O)N2Cc2ccc(C(F)(F)F)cc2)cc1COc1ccc(NC(C)=O)cc1 (stereo not shown) [Structure 197] | – | AC50 (read-out: AC50): 2.82 µM; Emax: 17% |
| COc1ccc(C2Nc3ccccc3C(=O)N2Cc2ccccc2OC)cc1COc1ccc(NC(C)=O)cc1 (stereo not shown) [Structure 198] | – | AC50 (read-out: AC50): 20 µM; Emax: 18% |
| COc1ccc(C2Nc3ccccc3C(=O)N2Cc2ccccc2)cc1COc1cccc(C)c1 (stereo not shown) [Structure 200] | – | Maximum Activity compared to TSH: 38.00; AC50 (read-out: AC50): 28.2 µM |
| COc1ccc(C(=O)O)cc1COc1ccc(NC(C)=O)cc1 [Structure 202] | inactive | – |
| COc1ccc(C(=O)C2C(=O)C(=O)N(Cc3ccco3)C2c2cccs2)cc1 (stereo not shown) [Structure 205] | inactive | – |
| COc1ccc(-c2nc3ccc(Cl)cc3c(=O)n2Cc2ccccc2)cc1COc1ccc(NC(C)=O)cc1 [Structure 206] | inactive | – |
| COc1ccc(O)c(-c2nc3ccccc3c(=O)n2Cc2ccccc2)c1 [Structure 211] | inactive | – |
| O=C1CC(c2ccco2)CC2=C1C(c1ccc(O)cc1)n1nc(C(F)(F)F)nc1N2 (stereo not shown) [Structure 213] | inactive | – |
| COc1ccc(CN(Cc2ccccc2)C(=O)Nc2ccccc2)cc1COc1ccc(NC(C)=O)cc1 [Structure 215] | – | Maximum Activity compared to TSH: 20.00 |
| COc1ccc2c(c1OC)C(=O)N1c3ccccc3C(=O)N(Cc3ccco3)C21 (stereo not shown) [Structure 217] | inactive | – |
| COc1ccc(-c2nc3cccc(OC)c3c(=O)n2Cc2ccccc2)cc1COc1ccc(NC(C)=O)cc1 [Structure 218] | – | AC50 (read-out: AC50): 39.8 µM; Emax: 38% |

| Structure (SMILES) | AC50 | other results |
| --- | --- | --- |
| O=C(c1ccccc1O)N(Cc1ccco1)Cc1ccco1 [Structure 219] | inactive | – |
| COc1ccc(CN(Cc2ccccc2)C(=O)c2ccccc2O)cc1COc1ccc(NC(C)=O)cc1 [Structure 220] | – | Maximum Activity compared to TSH: 32.00; AC50 (read-out: AC50): 17.8 µM |
| COc1ccc(C2Nc3ccccc3C(=O)N2Cc2ccccc2)cc1COc1ccc(NC(C)=O)cc1 (stereo not shown) [Structure 227] | inactive | – |
| COc1ccc(C2Nc3ccccc3C(=O)N2Cc2ccccc2)cc1COc1ccccc1OC (stereo not shown) [Structure 229] | – | AC50 (read-out: AC50): 8.91 µM; Emax: 23.5% |
| COc1ccc(C2Nc3ccccc3C(=O)N2Cc2ccccc2Cl)cc1COc1ccc(NC(C)=O)cc1 (stereo not shown) [Structure 231] | – | AC50 (read-out: AC50): 3.55 µM; Emax: 16% |
| COc1ccc(C2NC(=O)c3ccccc3N2)cc1COc1ccc(NC(C)=O)cc1 (stereo not shown) [Structure 233] | inactive | – |
| COc1ccc(C2Nc3ccccc3C(=O)N2Cc2ccc(C(F)(F)F)cc2)cc1COc1ccc(NC(C)=O)cc1 (stereo not shown) [Structure 234] | – | Maximum Activity compared to TSH: 18.00; AC50 (read-out: AC50): 8.91 µM |
| COc1ccc(CN(Cc2ccccc2)C(=O)COC(C)=O)cc1COc1ccc(NC(C)=O)cc1 [Structure 236] | – | Maximum Activity compared to TSH: 32.00; AC50 (read-out: AC50): 35.5 µM |
| COc1ccc(C2Nc3ccccc3C(=O)N2Cc2ccco2)cc1COc1ccc(N)cc1 (stereo not shown) [Structure 237] | inactive | – |
| COc1cccc(-c2nc(SC)nc3sc(C(=O)NC(C)(C)C)c(N)c23)c1 [Structure 239] | – | Maximum Activity compared to TSH: 30.00; AC50 (read-out: AC50): 17.8 µM |
| COc1cccc(-c2nc(SC)nc3sc(C(=O)NC(C)(C)C)c(N)c23)c1 [Structure 240] | inactive | – |
| O=C1CC(c2ccco2)CC2=C1C(c1ccncc1)n1nc(C(F)(F)F)nc1C2 (stereo not shown) [Structure 244] | inactive | – |
| COc1ccc(C2Nc3ccccc3C(=O)N2Cc2ccco2)cc1COc1ccc([N+](=O)[O-])cc1 (stereo not shown) [Structure 245] | inactive | – |
| COc1ccc(CN(Cc2ccccc2)C(=O)c2ccno2)cc1COc1ccc(NC(C)=O)cc1 [Structure 248] | – | AC50 (read-out: AC50): 70.8 µM; Emax: 32% |
| COc1ccc(CN(Cc2ccccc2)C(=O)c2ccno2)cc1COc1ccc(NC(C)=O)cc1 [Structure 249] | – | Maximum Activity compared to TSH: 38.00; AC50 (read-out: AC50): 50.1 µM |
| O=C1c2ccccc2NC(c2cc(Br)c3c(c2)OCO3)N1Cc1ccco1 (stereo not shown) [Structure 251] | inactive | – |
| O=C1c2ccccc2NC(c2ccccc2)N1Cc1ccco1 (stereo not shown) [Structure 254] | inactive | – |
| O=C1c2ccccc2NC(c2ccccc2)N1Cc1ccco1 (stereo not shown) [Structure 255] | inactive | – |
| COc1ccc(OCc2cc(C3Nc4ccccc4C(=O)N3Cc3ccccc3)ccc2OC)cc1 (stereo not shown) [Structure 256] | – | Maximum Activity compared to TSH: 24.00; AC50 (read-out: AC50): 5.01 µM |
| COc1ccc(C2Nc3ccccc3C(=O)N2CC(C)(C)C)cc1COc1ccc(NC(C)=O)cc1 (stereo not shown) [Structure 257] | – | AC50 (read-out: AC50): 20 µM; Emax: 20% |
| COc1ccc(C2Nc3ccccc3C(=O)N2C2CCCC2)cc1COc1ccc(NC(C)=O)cc1 (stereo not shown) [Structure 258] | – | Maximum Activity compared to TSH: 21.50; AC50 (read-out: AC50): 28.2 µM |
